Literature values as cited in patent US20240050950A1, “GRADIENT-BASED MICROFLUIDIC CIRCUIT, DEVICE, AND METHOD FOR PERFORMING AN ASSAY” (priority 2020, published 2024).
Where a name gives a salt, the structure may show the parent alone. Numbered stars: 1 amine (or outer) side, 2 acyl side, 3 side chain; on linkers, the order of the positions; unused ones are H or OH. Bridge positions count the residues as written; N and C are the ends. Square brackets hold non-standard residues; d marks the D form. Peptide text beside a SMILES is read from it. X1 = CC(C)CCCCCCCCC[C@H](CC(=O)[*:1])O[*:2]

B1: Neocarzinostatin (protein, UniProt P0A3R9 35-147, looked up)
Neocarzinostatin: AAPTATVTPSSGLSDGTVVKVAGAGLQAGTAYDVGQCAWVDTGVLACNPADFSSVTADANGSASTSLTVRRSFEGFLFDGTRWGTVDCTTAACQVGLSDAAGNGPEGVAISFN
modifications: enediyne chromophore
B2: Pegfilgrastim (protein, UniProt P09919 31-207, looked up)
Granulocyte …: TPLGPASSLPQSFLLKCLEQVRKIQGDGAALQEKLVSECATYKLCHPEELVLLGHSLGIPWAPLSSCPSQALQLAGCLSQLHSGLFLYQGLLQALEGISPELGPTLDTLQLDVADFATTIWQQMEELGMAPALQPTQGAMPAFASAFQRRAGGVLVASHLQSFLEVSYRVLRHLAQP
modifications: N-terminal methionine; PEG

conditions: Table 1, antimicrobial agents/drugs; cited from earlier work

Point of comparison: Magainin I, Molar volume 1900.4 ± 3.0 cm^3. Against it:
- COc1ccc2nc3cc(Cl)ccc3c(Nc3cc(CN4CCCC4)c(O)c(CN4CCCC4)c3)c2n1 [Pyronaridine] — lower, 381.8 ± 3.0 cm^3
- O=[N+]([O-])c1c(Cl)cccc1-c1c[nH]cc1Cl [Pyrrolnitrin] — lower, 168.7 ± 3.0 cm^3
- C[C@@H]1C[C@H]2O[C@@H]2/C=C\C=C\C(=O)Cc2c(Cl)c(O)cc(O)c2C(=O)O1 [Radicicol] — lower, 267.3 ± 3.0 cm^3
- NC(=O)c1ncn([C@@H]2O[C@H](CO)[C@@H](O)[C@H]2O)n1 [Ribavirin] — lower, 117.0 ± 7.0 cm^3
- NC[C@H]1O[C@H](O[C@H]2[C@H](O[C@@H]3O[C@H](CO)[C@@H](O)[C@H]3O)[C@@H](O)[C@H](N)C[C@@H]2N)[C@H](N)[C@@H](O)[C@@H]1O [Ribostamycin] — lower, 283.6 ± 5.0 cm^3
- CO[C@H]1/C=C/O[C@@]2(C)Oc3c(C)c(O)c4c(c3C2=O)C2=NC3(CCN(CC(C)C)CC3)NC2=C(NC(=O)/C(C)=C\C=C\[C@H](C)[C@H](O)[C@@H](C)[C@@H](O)[C@@H](C)[C@H](OC(C)=O)[C@@H]1C)C4=O [Rifabutin] — lower, 632.4 ± 7.0 cm^3
- CO[C@H]1/C=C/O[C@@]2(C)Oc3c(C)c(O)c4c(O)c(c(/C=N/N5CCN(C6CCCC6)CC5)c(O)c4c3C2=O)NC(=O)/C(C)=C\C=C\[C@H](C)[C@H](O)[C@@H](C)[C@@H](O)[C@@H](C)[C@H](OC(C)=O)[C@@H]1C [Rifapentine (DL 473), Rifapentine] — lower, 648.0 ± 7.0 cm^3
- CC[C@H]1OC(=O)[C@H](C)[C@@H](O[C@H]2C[C@@](C)(OC)[C@@H](O)[C@H](C)O2)[C@H](C)[C@@H](O[C@@H]2O[C@H](C)C[C@H](N(C)C)[C@H]2O)[C@](C)(O)C[C@@H](C)/C(=N\OCOCCOC)[C@H](C)[C@@H](O)[C@]1(C)O [Roxithromycin] — lower, 666.3 ± 7.0 cm^3
- CC[C@@H](C(=O)[C@@H](C)[C@@H](O)[C@H](C)[C@@H]1O[C@@H]([C@@H](CC)C(=O)O)CC[C@@H]1C)[C@H]1O[C@]2(C=C[C@@H](O)[C@]3(CC[C@@](C)([C@H]4CC[C@](O)(CC)[C@H](C)O4)O3)O2)[C@H](C)C[C@@H]1C [Salinomycin] — lower, 633.5 ± 5.0 cm^3
- C/C=C/C=C/C(=O)O [Sorbic acid] — lower, 109.4 ± 3.0 cm^3
- CO[C@H]1[C@@H](O)[C@H](O)[C@H](OC[C@@]23C[C@@H]4[C@H](C)CC[C@H]4[C@@]4(C=O)CC2C=C(C(C)C)[C@@]34C(=O)O)O[C@@H]1C [Sordarin] — lower, 381.1 ± 5.0 cm^3
- C[C@@H]1CN(c2c(F)c(N)c3c(=O)c(C(=O)O)cn(C4CC4)c3c2F)C[C@H](C)N1 [Sparfloxacin] — lower, 273.2 ± 3.0 cm^3
- CN[C@@H]1[C@H](O)[C@H](NC)[C@H]2O[C@@]3(O)C(=O)C[C@@H](C)O[C@H]3O[C@@H]2[C@H]1O [Spectinomycin] — lower, 231.6 ± 5.0 cm^3
- N=C(N)NCCCC[C@H](O)CC(=O)NC(O)C(=O)NCCCCNCCCN (some centres unmarked) [Spergualin] — lower, 304.4 ± 7.0 cm^3
- CN[C@@H]1C[C@H]2O[C@@](C)([C@@H]1OC)n1c3ccccc3c3c4c(c5c6ccccc6n2c5c31)C(=O)NC4 [Staurosporine (Staurosporine), Staurosporine] — lower, 298.7 ± 7.0 cm^3
- [H]/N=C(/N)N[C@H]1[C@H](O)[C@@H](O)[C@H](O[C@@H]2O[C@@H](C)[C@](O)(C=O)[C@H]2O[C@@H]2O[C@@H](CO)[C@H](O)[C@@H](O)[C@@H]2NC)[C@@H](N/C(N)=N\[H])[C@@H]1O [Streptomycin] — lower, 293.4 ± 7.0 cm^3
- COC1=C(N)C(=O)c2nc(-c3nc(C(=O)O)c(C)c(-c4ccc(OC)c(OC)c4O)c3N)ccc2C1=O [Streptonigrin (Bruneomycin, Nigrin), Streptonigrin] — lower, 322.2 ± 5.0 cm^3
- CC1(C)S[C@@H]2[C@H](NC(=O)C(C(=O)O)c3ccccc3)C(=O)N2[C@H]1C(=O)O (stereo partly drawn) [α-Carboxybenzylpenicillin] — lower, 246.1 ± 5.0 cm^3
- Aculeacin A — lower, 754.1 ± 5.0 cm^3
- Colistin — lower, 916.9 ± 5.0 cm^3
- Ikarugamycin — lower, 390.4 ± 5.0 cm^3
- Ivermectin Bla — lower, 708.3 ± 5.0 cm^3
- Kirromycin [Kirromycin (mocimycin)] — lower, 622.6 ± 3.0 cm^3
- Lactoferricin B (SITCVRRAFALECIRAIAEKKADAV; Lactoferricin-B; UniProt P24627 52-76, looked up, fragment) [Lactoferricin B (metallibure)] — lower, 184.7 ± 3.0 cm^3
- Lysobactin — lower, 895.9 ± 7.0 cm^3
- Mithramycin A [Mithramycin A (Plicamycin)] — lower, 728.3 ± 5.0 cm^3
- Neomycin — lower, 380.3 ± 5.0 cm^3
- Phleomycin [Phleomycin (UNII:BN3E7WJN9X)] — lower, 724.4 ± 7.0 cm^3
- Polymyxin B — lower, 941.8 ± 5.0 cm^3
- Reveromycin A [Reveromycin A (MFCD00912537)] — lower, 542.2 ± 5.0 cm^3
- gramicidin s — lower, 919.5 ± 5.0 cm^3
- B1 — lower, 434.9 ± 5.0 cm^3

same assay, conditions: Table 2, anticancer drugs; cited from earlier work

Point of comparison: “Gilteritinib Fumarate [Xospata (Gilteritinib Fumarate)]”, Molar volume 444.9 ± 3.0 cm^3. Against it:
- CNC(=O)c1cc(Oc2ccc(NC(=O)Nc3ccc(Cl)c(C(F)(F)F)c3)c(F)c2)ccn1 [Regorafenib] — lower, 323.6 ± 3.0 cm^3
- C[C@@H](OC[C@@]1(c2ccccc2)CC[C@]2(CCC(=O)N2)CN1)c1cc(C(F)(F)F)cc(C(F)(F)F)c1 [Rolapitant Hydrochloride] — lower, 373.3 ± 5.0 cm^3
- N#CC[C@H](C1CCCC1)n1cc(-c2ncnc3[nH]ccc23)cn1 [Ruxolitinib phosphate] — lower, 218.6 ± 7.0 cm^3
- Nc1nc2nc[nH]c2c(=S)[nH]1 [Tabloid (Thioguanine), Thioguanine] — lower, 96.4 ± 3.0 cm^3
- CO[C@H]1C[C@@H]2CC[C@@H](C)[C@@](O)(O2)C(=O)C(=O)N2CCCC[C@H]2C(=O)O[C@H]([C@H](C)C[C@@H]2CC[C@@H](OC(=O)C(C)(CO)CO)[C@H](OC)C2)CC(=O)[C@H](C)/C=C(\C)[C@@H](O)[C@@H](OC)C(=O)[C@H](C)C[C@H](C)/C=C/C=C/C=C/1C [Temsirolimus (Torisel), Temsirolimus] — higher, 853.1 ± 5.0 cm^3
- O=C1CCC(N2C(=O)c3ccccc3C2=O)C(=O)N1 (centres unmarked) [Thalidomide] — lower, 171.7 ± 3.0 cm^3
- COc1cc2c(cc1O)CCN[C@]21CS[C@@H]2c3c(OC(C)=O)c(C)c4c(c3[C@H](COC1=O)N1[C@@H]2[C@H]2c3c(cc(C)c(OC)c3O)C[C@@H]([C@@H]1O)N2C)OCO4 [Trabectedin (Yondelis), Trabectedin] — higher, 489.2 ± 5.0 cm^3
- CC(=O)OC[C@H]1O[C@@H](n2ccc(=O)[nH]c2=O)[C@H](OC(C)=O)[C@@H]1OC(C)=O [Uridine Triacetate (Vistogard), Uridine Triacetate] — lower, 257.5 ± 5.0 cm^3
- CCCCC(=O)OCC(=O)[C@]1(O)Cc2c(O)c3c(c(O)c2[C@@H](O[C@H]2C[C@H](NC(=O)C(F)(F)F)[C@H](O)[C@H](C)O2)C1)C(=O)c1c(OC)cccc1C3=O [Valrubicin] — higher, 469.8 ± 5.0 cm^3
- CC[C@]1(O)C[C@@H]2CN(CCc3c([nH]c4ccccc34)[C@@](C(=O)OC)(c3cc4c(cc3OC)N(C)[C@H]3[C@@](O)(C(=O)OC)[C@H](OC(C)=O)[C@]5(CC)C=CCN6CC[C@]43[C@@H]65)C2)C1 [Vinblastine Sulfate] — higher, 590.0 ± 5.0 cm^3
- O=C(CCCCCCC(=O)Nc1ccccc1)NO [Vorinostat (Zolinza), Vorinostat] — lower, 224.9 ± 3.0 cm^3
- Cc1nccn1CC1CCc2c(c3ccccc3n2C)C1=O (centres unmarked) [Zofran (Ondansetron Hydrochloride), Ondansetron Hydrochloride] — lower, 230.1 ± 7.0 cm^3
- Alemtuzumab — lower, 165.7 ± 7.0 cm^3
- Epoetin Alfa — higher, 665.6 ± 5.0 cm^3
- B2 — lower, 252.4 ± 3.0 cm^3

same assay, conditions: Table 3, antifungal drugs and other molecules; cited from earlier work

Point of comparison: Cc1cccc(N(C)C(=S)Oc2ccc3ccccc3c2)c1 [Tolnaftate], Molar volume 251.1 ± 3.0 cm^3. Against it:
- CC(C)CCCCCCCCC[C@@H]1CC(=O)N[C@@H](CCC(=O)O)C(=O)N[C@@H](CC(C)C)C(=O)N[C@H](CC(C)C)C(=O)N[C@@H](C(C)C)C(=O)N[C@@H](CC(=O)O)C(=O)N[C@H](CC(C)C)C(=O)N[C@@H](CC(C)C)C(=O)O1 [Surfactin] (EL[dL]VD[dL]L; linker N-C via X1) — higher, 998.6 ± 3.0 cm^3
- CN(C/C=C/C#CC(C)(C)C)Cc1cccc2ccccc12 [Terbinafine] — higher, 289.1 cm^3
- CC(C)N1CCN(c2ccc(OCC3COC(Cn4cncn4)(c4ccc(Cl)cc4Cl)O3)cc2)CC1 (centres unmarked) [Terconazole] — higher, 391.5 ± 7.0 cm^3
- Cc1ccc(C(C)C)c(O)c1 [Thymol (5-Methyl-2-isopropylphenol), 5-Methyl-2-isopropylphenol] — lower, 150.2 cm^3
- Clc1ccc(C(Cn2ccnc2)OCc2ccsc2Cl)c(Cl)c1 (centres unmarked) [Tioconazole] — higher, 269.0 ± 7.0 cm^3
- Nc1ncnc2c1ccn2[C@@H]1O[C@H](CO)[C@@H](O)[C@H]1O [Tubercidin] — lower, 139.5 ± 7.0 cm^3
- Antimycin — higher, 431.0 ± 5.0 cm^3
- Bleomycin — higher, 887.0 ± 5.0 cm^3
- Cinnamycin — higher, 1281.0 ± 7.0 cm^3
- Fengycin [Fengycin (Plipastatin)] — higher, 1105.9 ± 5.0 cm^3

same assay, conditions: fluorescent dyes; cited from earlier work

Point of comparison: O=C(O)CN(CC(=O)O)Cc1cc2c(cc1O)Oc1cc(O)c(CN(CC(=O)O)CC(=O)O)cc1C21OC(=O)c2ccccc21 [calcein], Molar volume 356±5 cm^3/mole. Against it:
- O=c1ccc2[n+]([O-])c3ccc(O)cc3oc-2c1 [resazurin] — lower, 145±7 cm^3/mole
